Assay results as given in US6916905B2, “Dmt-Tic di-and tri-peptidic derivatives and related compositions and methods of use” (The United States of America as represented by the …, priority 2000, dated 2005).
“Also recorded” adds a separate entry of the source. Where two headings read alike, the source gives them in different places. Non-standard residues stand in square brackets, D forms with d. Residues, ends and D or L forms follow the SMILES beside them. ξ: configuration not given here. *: point of attachment. Dmt = Cc1cc(O)cc(C)c1C[C@H](N)C(=O)O; ξDmt = Cc1cc(O)cc(C)c1CC(N)C(=O)O; Tic = O=C(O)[C@@H]1Cc2ccccc2CN1; NHNH2 = NN*

Assays:
[1] = target: T1, δ-opioid receptors (Rattus norvegicus, UniProt P33533); test: Rat brain synaptosome (P2) binding, agonist [3H]DPDPE (Example 47); conditions: for δ/μ selectivity, in words / δ affinity, in words: from Table II binding; for Agonist K1μ/Kiδ: selectivity, Kiδ from agonist radioligand [3H]DPDPE
T1 construct: assayed with a rat brain synaptosomal preparation (P2); from tissue; host or cells: rat brain P2 synaptosomes
T1 sequence (P33533 whole entry): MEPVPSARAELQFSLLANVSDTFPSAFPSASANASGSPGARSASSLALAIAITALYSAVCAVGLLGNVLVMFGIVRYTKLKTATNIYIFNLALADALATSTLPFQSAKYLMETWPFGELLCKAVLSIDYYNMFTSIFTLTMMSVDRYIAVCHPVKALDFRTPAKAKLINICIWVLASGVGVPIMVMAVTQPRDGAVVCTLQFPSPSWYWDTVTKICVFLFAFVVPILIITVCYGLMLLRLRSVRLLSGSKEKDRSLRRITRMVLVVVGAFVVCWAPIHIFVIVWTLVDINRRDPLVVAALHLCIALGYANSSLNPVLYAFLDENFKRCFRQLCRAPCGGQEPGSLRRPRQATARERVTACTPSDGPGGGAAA
Description: (§2) Briefly, the agonists [^3H]DPDPE (30-60 Ci/mmol, NEN-DuPont) and [^3H]DAGO (30-60 Ci/mmol, Amersham) were used to label δ and μ sites, respectively, under saturation binding conditions (2 hrs at 22° C.). Excess unlabeled peptide (2 μM) established non-specific binding levels and the labeled membranes were rapidly filtered on Whatman GF/C glass fibre filters, thoroughly washed, dried and measured for radioactivity using CytoScint (ICN, Irvine, Calif.). […] The affinity constants (Ki) were calculated according to Cheng and Prusoff (Biochem. Pharmacol. 22: 3099-3108 (1973)).

[2] = target: T1, δ-opioid receptors; test: Rat brain synaptosome (P2) binding, δ antagonist [3H]N,N(CH3)2-Dmt-Tic-OH (Example 47); conditions: for Antagonist K1μ/Kiδ: selectivity, Kiδ from antagonist radioligand [3H]N,N(CH3)2-Dmt-Tic-OH
Description: as §2

[3] = target: T2, μ-opioid receptors (Rattus norvegicus, UniProt P33535); test: Rat brain synaptosome (P2) binding, [3H]DAGO (Example 47)
T2 construct: assayed with a rat brain synaptosomal preparation (P2); from tissue; host or cells: rat brain P2 synaptosomes
T2 sequence (P33535 whole entry): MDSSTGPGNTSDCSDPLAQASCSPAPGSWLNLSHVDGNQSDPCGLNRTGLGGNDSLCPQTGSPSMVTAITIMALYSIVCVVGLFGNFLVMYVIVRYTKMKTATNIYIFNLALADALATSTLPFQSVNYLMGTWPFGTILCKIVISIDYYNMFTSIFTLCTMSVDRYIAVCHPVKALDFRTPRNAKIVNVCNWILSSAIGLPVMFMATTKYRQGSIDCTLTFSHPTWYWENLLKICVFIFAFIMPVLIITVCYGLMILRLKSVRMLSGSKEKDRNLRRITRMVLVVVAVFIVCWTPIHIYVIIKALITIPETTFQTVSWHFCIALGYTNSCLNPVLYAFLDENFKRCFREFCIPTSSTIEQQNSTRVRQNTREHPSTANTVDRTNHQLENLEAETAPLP

[4] = target: δ receptors (Mus musculus, UniProt P32300)
δ receptors, sequence (P32300 whole entry): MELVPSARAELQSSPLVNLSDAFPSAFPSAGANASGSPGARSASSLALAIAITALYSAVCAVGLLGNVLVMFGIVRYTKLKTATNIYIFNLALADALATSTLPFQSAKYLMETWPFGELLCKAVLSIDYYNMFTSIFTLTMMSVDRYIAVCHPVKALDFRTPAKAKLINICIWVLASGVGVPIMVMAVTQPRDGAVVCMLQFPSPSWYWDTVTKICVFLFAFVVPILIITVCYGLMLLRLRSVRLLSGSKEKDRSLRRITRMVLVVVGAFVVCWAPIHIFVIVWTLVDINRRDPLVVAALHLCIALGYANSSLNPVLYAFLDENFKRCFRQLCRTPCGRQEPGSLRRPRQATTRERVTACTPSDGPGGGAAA
Description: (§1) The functional bioactivity of the present inventive compounds was assessed using standard functional bioassays of δ and μ activity in MVD and GPI (Salvadori et al. (1995), supra; and Salvadori et al., J. Med. Chem. 36: 3748-3756 (1993)). […] Dose-response curves were obtained (Salvadori et al. (1995), supra) for both tissues. […] Data were derived from at least four independent tissue samples and dose-response curves from which the pA2 values were determined (Salvadori et al. (1997), supra) according to Arunlakshana and Schild (Br. J. Pharmacol. 14: 48-58 (1959)).

[5] = target: μ receptors (Cavia porcellus, UniProt P97266); test: Guinea pig ileum (GPI) functional bioassay (Example 48)
μ receptors, sequence (P97266 whole entry, looked up): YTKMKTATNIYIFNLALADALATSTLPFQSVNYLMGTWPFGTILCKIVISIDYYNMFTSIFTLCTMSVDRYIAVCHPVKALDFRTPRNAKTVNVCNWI
Description: as §1

[6] = target: hMDR-1 (Homo sapiens, UniProt P08183); test: Calcein AM assay for Pgp in hMDR-1 transfected G-185 fibroblasts (Example 49); conditions: for inhibition of hMDR-1 (Pgp), in words: calcein fluorescence
hMDR-1, sequence (P08183 whole entry): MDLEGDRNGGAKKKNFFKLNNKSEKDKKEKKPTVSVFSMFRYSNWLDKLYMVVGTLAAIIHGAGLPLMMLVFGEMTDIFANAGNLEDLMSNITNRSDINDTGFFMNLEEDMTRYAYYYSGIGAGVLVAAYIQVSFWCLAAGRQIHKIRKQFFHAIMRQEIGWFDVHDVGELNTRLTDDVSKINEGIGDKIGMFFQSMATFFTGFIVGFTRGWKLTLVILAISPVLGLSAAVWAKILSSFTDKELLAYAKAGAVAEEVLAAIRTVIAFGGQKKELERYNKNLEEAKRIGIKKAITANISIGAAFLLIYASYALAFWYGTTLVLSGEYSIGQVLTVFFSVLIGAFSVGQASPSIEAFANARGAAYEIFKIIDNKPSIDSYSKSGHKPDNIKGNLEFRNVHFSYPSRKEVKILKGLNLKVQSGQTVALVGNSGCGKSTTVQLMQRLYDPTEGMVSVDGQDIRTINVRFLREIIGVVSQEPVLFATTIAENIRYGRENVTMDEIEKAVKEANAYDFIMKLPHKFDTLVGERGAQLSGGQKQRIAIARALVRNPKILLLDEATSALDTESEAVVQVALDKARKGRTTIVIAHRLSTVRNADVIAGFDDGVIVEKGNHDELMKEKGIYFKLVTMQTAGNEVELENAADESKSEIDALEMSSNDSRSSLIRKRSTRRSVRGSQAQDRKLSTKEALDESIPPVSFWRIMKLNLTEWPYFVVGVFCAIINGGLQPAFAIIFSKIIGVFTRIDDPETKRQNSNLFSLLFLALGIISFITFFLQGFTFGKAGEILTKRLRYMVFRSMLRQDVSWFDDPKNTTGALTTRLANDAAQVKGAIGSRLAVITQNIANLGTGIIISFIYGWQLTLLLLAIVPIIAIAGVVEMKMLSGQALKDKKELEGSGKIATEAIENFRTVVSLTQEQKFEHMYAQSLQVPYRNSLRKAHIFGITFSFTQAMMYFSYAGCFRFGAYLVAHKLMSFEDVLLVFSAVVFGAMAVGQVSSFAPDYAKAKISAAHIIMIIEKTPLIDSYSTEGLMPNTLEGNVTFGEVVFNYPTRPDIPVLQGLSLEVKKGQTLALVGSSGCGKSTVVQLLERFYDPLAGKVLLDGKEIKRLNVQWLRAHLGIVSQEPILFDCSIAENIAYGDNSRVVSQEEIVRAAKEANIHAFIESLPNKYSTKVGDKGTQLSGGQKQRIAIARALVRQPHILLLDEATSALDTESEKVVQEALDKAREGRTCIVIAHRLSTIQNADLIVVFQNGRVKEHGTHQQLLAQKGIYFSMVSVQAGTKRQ
Description: Stably transfected G-185 fibroblasts containing hMDR-1 and NIH 3T3 cell lines were grown to confluent monolayers in DMEM containing 4.5 g glucose/1, 10% fetal calf serum, L-glutamine, penicillin (50 units/ml), streptomycin (50 μg/ml) and 1 mM sodium pyruvate in 5% CO2 at 37° C. G-185 cells were maintained in […] colchicine.
The assay for Pgp is based on the diffusion of non-fluorescent calcein AM across the cell membrane. Calcein AM is then hydrolyzed and accumulates as the fluorescent calcein. In transfected cells expressing excess hMDR-1, Pgp extrudes calcein AM from the cell before hydrolysis occurs; inhibition of hMDR-1 results in the accumulation of intracellular calcein. Transfected G-185 cells and the NIH 3T3 cells were analyzed in triplicate using seven graded dosages of verapamil or the opioid peptides in 96-well plates. Cells (2.5×10^6/well) were incubated in 100 μl culture medium for 15 min at 37° C. and 50 μl of 1 μM calcein AM in PBS, plus 50 μl of verapamil or one of the present inventive compounds in PBS, or 100 μl of PBS alone (control) were added. Cells were mixed and incubated for 15 min at 37° C., then centrifuged for 5 min at 2,000×g, and then washed three times in 200 μl PBS. Cell pellets were resuspended in 200 μl PBS and transferred to white Microfluor Plates (Nunc, Copenhagen, Denmark) in order to measure calcein-specific fluorescence (494 nm absorption; 517 nm emission). Internal controls were carried out with each experiment using verapamil and PBS in order to compare the consistency between cell preparations. Means±SE (error bars) were determined and plotted using Prism™ (GraphPad, San Diego, Calif.).

[7] = rat brain synaptosomes (P2), mean ± SEM, n in parentheses, read-out: Kiδ(nM) [^3H]DPDPE
[8] = rat brain synaptosomes (P2), δ antagonist radioligand, mean ± SEM, n in parentheses, read-out: Kiδ(nM) [^3H]N,N(CH3)2-Dmt-Tic-OH
[9] = rat brain synaptosomes (P2), mean ± SEM, n in parentheses, read-out: Kiμ (nM) [^3H]DAGO
[10] = δ antagonism, Ke = antilog of pA2
[11] = MVD Ke(nM), δ antagonism, Ke = antilog of pA2
[12] = MVD pA2 (range), δ antagonism against deltorphin C, mean (range)

Row | Compound | Ki [1, 7] | Agonist K1μ/Kiδ [1] | Ki [2, 8] | Antagonist K1μ/Kiδ [2] | Ki [3, 9] | inhibition of hMDR-1 (Pgp), in words [6] | also measured
1 | Cc1cc(O)cc(C)c1C[C@H](N)C(=O)N1Cc2ccccc2C[C@H]1C(=O)Nc1nnn[nH]1 [Compound 10, H-Dmt-Tic-NH-tetrazole-5-yl] | 0.7 ± 0.03 nM | 53 | 9.75 ± 1.73 nM | 4 | 37 ± 4.5 nM | – | δ/μ selectivity, in words [1]: essentially nonselective; bioactivity on MVD (δ), in words [4]: weak δ antagonist; MVD Ke [4, 10]: 36.3 nM; bioactivity on GPI (μ), in words [5]: very minimal activity on GPI
2 | C[C@@H](NC(=O)[C@@H](N)Cc1ccc(O)cc1)C(=O)N[C@@H](Cc1ccccc1)C(=O)N[C@@H](Cc1c[nH]c2ccccc12)C(=O)N[C@@H](Cc1ccc(O)cc1)C(=O)N1CCC[C@H]1C(=O)N[C@@H](CCCCN)C(=O)O [[Trp^4,Lys-OH^7]DER, H-Tyr-D-Ala-Phe-Trp-Tyr-Pro-Lys-OH] (H-Y[dA]FWYPK-OH) | – | – | – | – | – | inactive | –
3 | H-Dmt-Sar-Bid [DSB] | – | – | – | – | – | inactive | –
4 | Cc1cc(O)cc(C)c1CC(CN)C(=O)N1Cc2ccccc2C[C@H]1C(=O)O (stereo partly drawn) [Compound 2, H-αDmt-Tic-OH] | 11.2 ± 3.5 nM | 155 | 475 ± 37 nM | 4 | 1740 ± 16 nM | – | –
5 | COC(=O)[C@H](C)NC(=O)[C@@H]1Cc2ccccc2CN1C(=O)[C@@H](N)Cc1c(C)cc(O)cc1C [Compound 19, H-Dmt-Tic-Ala-OMe] (H-[Dmt]-[Tic]-Ala-OMe) | 0.23 ± 0.09 nM | 48 | 0.14 ± 0.04 nM | 83 | 11.3 ± 1.87 nM | – | –
6 | Cc1cc(O)cc(C)c1C[C@H](N)C(=O)N1Cc2ccccc2C[C@H]1C(=O)NN [Compound 6, H-Dmt-Tic-NHNH2] (H-[Dmt]-[Tic]-NHNH2) | 0.99 ± 0.04 nM | 86 | 42 ± 7.9 nM | 2 | 85.1 ± 7.3 nM | – | δ/μ selectivity, in words [1]: essentially nonselective
7 | Cc1cc(O)cc(C)c1C[C@@H](C(=O)N1Cc2ccccc2C[C@H]1C(=O)O)n1cccc1 [Compound 5, [des-NH2-α-pyrrole-1-yl]-Dmt-Tic-OH] | 16.6 ± 2.5 nM | 338 | 9.94 ± 2.5 nM | 562 | 5590 ± 411 nM | – | bioactivity on MVD (δ), in words [4]: detrimental for all bioactivity measurements on MVD; MVD Ke [4, 10]: 408 nM
8 | Cc1cc(O)cc(C)c1C[C@H](N)C(=O)N1Cc2ccccc2C[C@@H]1C(=O)NC12CC3CC(CC(C3)C1)C2 [Compound 12, H-Dmt-D-Tic-NH-1-adamantane] | – | 0.01 | – | 0.004 | – | – | Ki [1]: 24.5 ± 4.9 nM; δ affinity, in words [1]: lost high δ affinity; δ/μ selectivity, in words [1]: moderately μ selective; Ki [2]: 70.3 ± 7.25 nM; Ki [3]: 0.26 ± 0.08 nM; Kb [4, 11]: > 10000 nM; EC50 [5]: 1680 nM; bioactivity on GPI (μ), in words [5]: μM activity on GPI
9 | COc1ccc(CCN(C)CCCC(C#N)(c2ccc(OC)c(OC)c2)C(C)C)cc1OC (centres unmarked) [verapamil] | – | – | – | – | – | – | maximum effective dose [6]: 75 to 100 µM
10 | CNC(=O)[C@@H]1Cc2ccccc2CN1C(=O)[C@H](Cc1c(C)cc(O)cc1C)N(C)C [Compound 13, N,N(Me)2-Dmt-Tic-NHMe] | 0.54 ± 0.07 nM | 669 | 0.28 ± 0.02 nM | 1268 | 359 ± 62 nM | – | Kb [4, 12]: 0.407 nM; MVD Ke [4, 10]: 0.41 nM; bioactivity on GPI (μ), in words [5]: weak μ antagonist; EC50 ([5]; μ agonism, read-out: GPI ED50): > 10000 nM; GPI Ke ([5]; μ antagonism): 0.39 µM; Kb ([5]; μ antagonism, mean (range), read-out: GPI pA2 (range) (converted)): 389 nM
11 | C[C@@H](NC(=O)[C@@H](N)Cc1ccc(O)cc1)C(=O)N[C@@H](Cc1ccccc1)C(=O)N[C@@H](Cc1c[nH]c2ccccc12)C(=O)N[C@@H](Cc1ccc(O)cc1)C(N)=O [[Trp^4,Tyr^5]DER, H-Tyr-D-Ala-Phe-Trp-Tyr-NH2] (H-Y[dA]FWY-NH2) | – | – | – | – | – | inactive | –
12 | deltorphin | – | – | – | – | – | lack of inhibition | –
13 | COC(=O)[C@@H]1Cc2ccccc2CN1C(=O)[C@@H](N)Cc1c(C)cc(O)cc1C [Compound 8, H-Dmt-Tic-OMe] (H-[Dmt]-[Tic]-OMe) | 9.64 ± 2.2 nM | 44 | 500 ± 90 nM | 0.8 | 423 ± 25 nM | – | δ affinity, in words [1]: lost high δ affinity; δ/μ selectivity, in words [1]: weakly μ selective
14 | Cc1cc(O)cc(C)c1C[C@@H](C(=O)N1Cc2ccccc2C[C@@H]1C(=O)NC12CC3CC(CC(C3)C1)C2)N(C)C [Compound 16, N,N(Me)2-Dmt-D-Tic-NH-1-adamantane] | – | 0.36 | – | 0.42 | – | – | Ki [1]: 140 ± 30 nM; δ affinity, in words [1]: lost high δ affinity; δ/μ selectivity, in words [1]: weakly μ selective; Ki [2]: 120 ± 25.9 nM; Ki [3]: 50.5 ± 2.6 nM; bioactivity on MVD (δ), in words [4]: greatly reduced bioactivity on MVD; Kb [4, 12]: 123 nM; MVD Ke [4, 10]: 128 nM; EC50 [5]: 4480 nM; bioactivity on GPI (μ), in words [5]: μM activity on GPI
15 | H-Tyr-D-Ala-Gly-N-MePhe-Met(O)-ol [DAMME] | – | – | – | – | – | inactive; also recorded: lack of inhibition | –
16 | CC1(C)SSC(C)(C)[C@@H](NC(=O)[C@@H](N)Cc2ccc(O)cc2)C(=O)NCC(=O)N[C@@H](Cc2ccccc2)C(=O)N[C@H]1C(=O)O [DPDPE, H-Tyr-[D-Pen-Gly-Phe-D-Pen] enkephalin] | – | – | – | – | – | inactive; also recorded: lack of inhibition | –
17 | CC(C)[C@H](NC(=O)[C@H](CCC(=O)O)NC(=O)[C@H](Cc1ccccc1)NC(=O)[C@@H](C)NC(=O)[C@@H](N)Cc1ccc(O)cc1)C(=O)N[C@H](C(=O)NCC(N)=O)C(C)C [deltorphin B, H-Tyr-D-Ala-Phe-Glu-Val-Val-Gly-NH2] | – | – | – | – | – | inactive | –
18 | CCN(CC)[C@@H](Cc1c(C)cc(O)cc1C)C(=O)N1Cc2ccccc2C[C@H]1C(=O)O [Compound 17, N,N(Et)2-DMT-Tic-OH] | – | 35.3 ± 1.96 (3-5) | – | – | – | – | Ki [1]: 0.92 ± 0.19 nM
19 | Cc1cc(O)cc(C[C@H](N)C(=O)N[C@H](Cc2ccccc2)C(=O)NCC(=O)N[C@H](C(=O)N[C@H](C(N)=O)C(C)C)C(C)C)c1C [DPD, H-Dmt-D-Phe-Gly-Val-Val-NH2] | – | – | – | – | – | inactive | –
20 | Cc1cc(O)cc(C)c1C[C@H](N)C(=O)N1Cc2ccccc2C[C@H]1CC(=O)O [Compound 1, H-Dmt-βTic-OH] | 0.85 ± 0.2 nM | 498 | 0.71 ± 0.04 nM | 590 | 418 ± 86 nM | – | bioactivity on MVD (δ), in words [4]: highest δ-antagonist functional bioactivities; Kb [4, 11]: 1.41 nM; Kb [4, 12]: 1.58 nM; EC50 [5]: > 10000 nM
21 | Cc1cc(O)cc(C)c1CC(N)C(=O)N1Cc2ccccc2C[C@H]1C(=O)O (stereo partly drawn) [H-(R,S)Dmt-Tic-OH, reference compound] (H-[ξDmt]-[Tic]-OH) | – | – | – | – | 1160 ± 327 nM | – | Kb [4]: 6.76 nM; EC50 ([5]; μ agonism, read-out: GPI ED50): > 10000 nM
22 | Cc1cc(O)cc(C)c1C[C@@H](C(=O)N1Cc2ccccc2C[C@H]1C(=O)O)N1CCCC1 [Compound 4, [des-NH2-α-pyrrolidine-1-yl]-Dmt-Tic-OH] | 1.62 ± 0.19 nM | 502 | 1.42 ± 0.14 nM | 573 | 814 ± 65 nM | – | bioactivity on MVD (δ), in words [4]: detrimental for all bioactivity measurements on MVD; Kb [4, 12]: 126 nM; MVD Ke [4, 10]: 121 nM; EC50 [5]: > 10000 nM
23 | CNC(=O)[C@H](C)NC(=O)[C@@H]1Cc2ccccc2CN1C(=O)[C@@H](N)Cc1c(C)cc(O)cc1C [Compound 18, H-Dmt-Tic-Ala-NHMe] (H-[Dmt]-[Tic]-Ala-NHMe) | 0.058 ± 0.01 nM | 100 | 0.12 ± 0.04 nM | 47 | 5.75 ± 0.72 nM | – | EC50 [4]: 1290 nM; bioactivity on MVD (δ), in words [4]: very weak δ and μ agonism; EC50 [5]: 290 nM; bioactivity on GPI (μ), in words [5]: very weak δ and μ agonism
